Among the data in ChEMBL document CHEMBL1138537, “Small-molecule scaffolds for CYP51 inhibitors identified by high-throughput screening and defined by X-ray crystallography” (Antimicrob Agents Chemother, 2007) are Kd values, retold here.

The assay concerns the target Sterol 14alpha-demethylase (Mycobacterium tuberculosis, UniProt P9WPP9, F78L).

A word on the Kd: it is the free concentration of one partner at which half of the binding sites on the other are occupied at equilibrium, for simple one-to-one binding. A high value points to weaker binding.

`O=C(Nc1ccncc1)C(NS(=O)(=O)c1cccc2nsnc12)c1ccccc1` (stereo unspecified) displayed a dissociation constant Kd of 23.2 µM.
